Measured values reported in PMC8795197, “Safety and activity of WX-0593 (Iruplinalkib) in patients with ALK- or ROS1-rearranged advanced non-small cell lung cancer: a phase 1 dose-escalation and dose-expansion trial” (Signal Transduction and Targeted Therapy, 2022).
Read-outs that look alike come from different tables or passages of the source. Blank lines part the entries; values can stand above or below the molecule they belong to.

Key:
[1] = system: Ba/F3 CD74-ROS1-D2033N; test: Growth of transfected Ba/F3 cells (CellTiter-Glo, 3 days); type: cell-based; conditions: Mus musculus, BaF3
Method: (§1) Harvest cells during the logarithmic growth period and count cells using blood counting chamber. Adjust cell concentration with culture medium. Add 90µl cell suspensions to two 96-well plates to the final cell density as described before. Incubate the plate overnight in humidified incubator at 37℃ with 5% CO2. Dispense 10µl drug solution (10×) to each well (triplicate for each concentration), and the DMSO final concentration in culture medium is 0.1% [v/v]. Culture the plates for 3 days.On Day 3, Read luminescent using Multi Label Reader. The software of GraphPad Prism was used to calculate IC50. The graphical curves were fitted using a nonlinear regression model with a sigmoidal dose response.

[2] = system: Ba/F3 CD74-ROS1-L1951R; test: as above; type: cell-based; conditions: Mus musculus, BaF3
Method: as §1

[3] = system: Ba/F3 CD74-ROS1-S1986F; test: as above; type: cell-based; conditions: Mus musculus, BaF3
Method: as §1

[4] = system: Ba/F3 CD74-ROS1-S1986Y; test: as above; type: cell-based; conditions: Mus musculus, BaF3
Method: as §1

[5] = system: Ba/F3 ALK-C1156Y; test: as above; type: cell-based; conditions: Mus musculus, BaF3
Method: as §1, with “days. On” for “days.On”

[6] = system: Ba/F3 ALK-F1174C; test: as above; type: cell-based
Method: as §1, with “days. On” for “days.On”

[7] = system: Ba/F3 ALK-F1174L; test: as above; type: cell-based; conditions: Mus musculus, BaF3
Method: as §1, with “days. On” for “days.On”

[8] = system: Ba/F3 ALK-G1202R; test: as above; type: cell-based; conditions: Mus musculus, BaF3
Method: as §1, with “days. On” for “days.On”

[9] = system: Ba/F3 ALK-G1202del; test: as above; type: cell-based; conditions: Mus musculus, BaF3
Method: as §1, with “days. On” for “days.On”

[10] = system: Ba/F3 ALK-G1269A; test: as above; type: cell-based; conditions: Mus musculus, BaF3
Method: as §1, with “days. On” for “days.On”

[11] = system: Ba/F3 ALK-I1171N; test: as above; type: cell-based; conditions: Mus musculus, BaF3
Method: as §1, with “days. On” for “days.On”

[12] = system: Ba/F3 ALK-I1171S; test: as above; type: cell-based
Method: as §1, with “days. On” for “days.On”

[13] = system: Ba/F3 ALK-I1171T; test: as above; type: cell-based; conditions: Mus musculus, BaF3
Method: as §1, with “days. On” for “days.On”

[14] = system: Ba/F3 ALK-L1152P; test: as above; type: cell-based; conditions: Mus musculus, BaF3
Method: as §1, with “days. On” for “days.On”

[15] = system: Ba/F3 ALK-L1152R; test: as above; type: cell-based; conditions: Mus musculus, BaF3
Method: as §1, with “days. On” for “days.On”

[16] = system: Ba/F3 ALK-L1196M; test: as above; type: cell-based; conditions: Mus musculus, BaF3
Method: as §1, with “days. On” for “days.On”

[17] = system: Ba/F3 ALK-T1151Tins; test: as above; type: cell-based; conditions: Mus musculus, BaF3
Method: as §1, with “days. On” for “days.On”

[18] = system: Ba/F3 ALK-V1180L; test: as above; type: cell-based; conditions: Mus musculus, BaF3
Method: as §1, with “days. On” for “days.On”

[19] = system: Ba/F3 ALK-WT; test: as above; type: cell-based; conditions: Mus musculus, BaF3
Method: as §1, with “days. On” for “days.On”

[20] = system: Ba/F3 SLC34A2-ROS1-G2032R; test: as above; type: cell-based; conditions: Mus musculus, BaF3
Method: as §1

[21] = system: Ba/F3 SLC34A2-ROS1-L2026M; test: as above; type: cell-based; conditions: Mus musculus, BaF3
Method: as §1

[22] = system: Ba/F3 SLC34A2-ROS1; test: as above; type: cell-based; conditions: Mus musculus, BaF3
Method: as §1

[23] = system: 27 non-target kinases (MAP4K4 ... INSR, EGFR wild type); test: Inhibitory study of 27 non-target kinases; type: biochemical; conditions: except for EGFR wild type
[24] = system: Karpas299 (NPM-ALK); test: Cell proliferation inhibition assay; type: cell-based
[25] = system: Ba/F3 (EML4-ALK-WT); test: Cell proliferation inhibition assay; type: cell-based
[26] = system: Ba/F3 (EML4-ALK-L1196M); test: Cell proliferation inhibition assay; type: cell-based
[27] = system: Ba/F3 (EML4-ALK-C1156Y); test: Cell proliferation inhibition assay; type: cell-based
[28] = system: NCI-H1975 (EGFR mutant L858R/T790M); test: Cell proliferation inhibition assay; type: cell-based
[29] = system: LU-01-0319R NSCLC PDX; test: PDX model resistant to crizotinib; type: in vivo; conditions: WX-0593 2.5, 5, 10 mg/kg; ceritinib 10/20 mg/kg; brigatinib 10 mg/kg
[30] = system: patients treated with ALK TKIs; conditions: cited from earlier work
[31] = system: Ba/F3 ALK-F1174V; test: Growth of transfected Ba/F3 cells (CellTiter-Glo, 3 days); type: cell-based; conditions: Mus musculus, BaF3
Method: as §1, with “days. On” for “days.On”

[32] = system: NSCLC patients with ALK or ROS1 rearrangement; conditions: cited from earlier work
[33] = Grades 1 and 2 adverse reactions
[34] = serious adverse events in more than 2 patients
[35] = Mus musculus, BaF3, ALK-F1174C, first listing (r10), read-out: IC50
[36] = Mus musculus, BaF3, ALK-F1174C, second listing (r15), read-out: IC50
[37] = Mus musculus, BaF3, ALK-I1171S, first listing (r12), read-out: IC50
[38] = Mus musculus, BaF3, ALK-I1171S, second listing (r19), read-out: IC50

Structure (SMILES): COc1cc(N2CCC(N3CCN(C)CC3)CC2)ccc1Nc1ncc(Cl)c(Nc2ccccc2P(C)(C)=O)n1 [Brigatinib]
IC50 [5]: 39 nM
IC50 ([6]; Mus musculus, BaF3, ALK-F1174C, first listing (r10)): 97 nM
IC50 ([6]; Mus musculus, BaF3, ALK-F1174C, second listing (r15)): 51.6 nM
IC50 [7]: 31 nM
IC50 [8]: 340 nM
IC50 [9]: 1000 nM
IC50 [10]: 31 nM
IC50 [11]: 35 nM
IC50 ([12]; Mus musculus, BaF3, ALK-I1171S, first listing (r12)): 93 nM
IC50 ([12]; Mus musculus, BaF3, ALK-I1171S, second listing (r19)): 40 nM
IC50 [13]: 18.9 nM
IC50 [14]: 1.5 nM
IC50 [15]: 10.4 nM
IC50 [16]: 31 nM
IC50 [17]: 35 nM
IC50 [18]: 10.4 nM
IC50 [19]: 25 nM
IC50 [1]: 36.5 nM
IC50 [2]: 775 nM
IC50 [3]: 20.2 nM
IC50 [4]: 12.5 nM
IC50 [20]: 846 nM
IC50 [21]: 48 nM
IC50 [22]: 22 nM
inhibitory activity against non-target kinases [23]: no significant inhibitory activity
growth inhibition [24]: significantly inhibits the growth
growth inhibition [25]: significantly inhibits the growth
growth inhibition [26]: significantly inhibits the growth
growth inhibition [27]: significantly inhibits the growth
growth inhibition [28]: somewhat inhibits the growth
anti-tumor effect [29]: significant effects against crizotinib-induced resistance
coughing [30, 33]: 26%
diarrhea [30, 33]: 36%
fatigue [30, 33]: 36%
headache [30, 33]: 26%
nausea [30, 33]: 45%
diarrhea, % of patients [30]: 41%
dose reduction due to TEAEs, % of patients [30]: 14%
DLTs in the tolerability study ([30]; one Grade 3 ALT increased, one Grade 4 dyspnea and Grade 3 hypoxia): Two
coughing [30, 34]: 4%
dyspnea [30, 34]: 4%
hypoxia [30, 34]: 4%
pleural effusion [30, 34]: 4%
pneumonia [30, 34]: 7%

Structure (SMILES): Cc1cc(Nc2ncc(Cl)c(Nc3ccccc3S(=O)(=O)C(C)C)n2)c(OC(C)C)cc1C1CCNCC1 [Ceritinib]
IC50 ([5]; ALK-C1156Y, read-out: IC50): 87 nM
IC50 [6, 35]: 95 nM
IC50 [6, 36]: 79.5 nM
IC50 ([7]; ALK-F1174L, read-out: IC50): 21 nM
IC50 ([31]; ALK-F1174V, read-out: IC50): 53.7 nM
IC50 ([8]; ALK-G1202R, read-out: IC50): 502 nM
IC50 ([9]; ALK-G1202del, read-out: IC50): 925 nM
IC50 ([10]; ALK-G1269A, read-out: IC50): 16 nM
IC50 ([11]; ALK-I1171N, read-out: IC50): 41.8 nM
IC50 [12, 37]: 97 nM
IC50 [12, 38]: 45.8 nM
IC50 ([13]; ALK-I1171T, read-out: IC50): 27.8 nM
IC50 ([14]; ALK-L1152P, read-out: IC50): 71.5 nM
IC50 ([15]; ALK-L1152R, read-out: IC50): 116 nM
IC50 ([16]; ALK-L1196M, read-out: IC50): 33 nM
IC50 ([17]; ALK-T1151Tins, read-out: IC50): 96 nM
IC50 ([18]; ALK-V1180L, read-out: IC50): 15.6 nM
IC50 ([19]; ALK-WT, read-out: IC50): 13 nM
IC50 [1]: 159 nM
IC50 [2]: 642 nM
IC50 [3]: 49.6 nM
IC50 [4]: 32.5 nM
IC50 [20]: 1100 nM
IC50 [21]: 54 nM
IC50 [22]: 14 nM
anti-tumor effect [29]: significant effects against crizotinib-induced resistance
ORR ([32]; ALK-rearranged patients): 58%
ALT increased [30, 33]: 35%
diarrhea [30, 33]: 75%
fatigue [30, 33]: 47%
nausea [30, 33]: 82%
vomiting [30, 33]: 65%
diarrhea, % of patients [30]: 75%
dose reduction due to TEAEs, % of patients [30]: 62%

Structure (SMILES): C[C@H]1Oc2cc(cnc2N)-c2c(nn(C)c2C#N)CN(C)C(=O)c2ccc(F)cc21 [Lorlatinib]
IC50 [5]: 4 nM
IC50 [6]: 15.9 nM
IC50 ([6]; Mus musculus, BaF3): 11 nM
IC50 [7]: 4 nM
IC50 [31]: 16.1 nM
IC50 [8]: 26 nM
IC50 [9]: 215 nM
IC50 [10]: 35 nM
IC50 [11]: 41.1 nM
IC50 [12]: 52.8 nM
IC50 ([12]; Mus musculus, BaF3): 33 nM
IC50 [13]: 19 nM
IC50 [14]: 4.6 nM
IC50 [15]: 17.4 nM
IC50 [16]: 54 nM
IC50 [17]: 7 nM
IC50 [18]: 5.2 nM
IC50 [19]: 4 nM
IC50 [1]: 1.7 nM
IC50 [2]: 5.1 nM
IC50 [3]: 1.1 nM
IC50 [4]: 1.5 nM
IC50 [20]: 197 nM
IC50 [21]: < 1 nM
IC50 [22]: < 1 nM
ORR ([32]; ALK TKI-naive patients with ROS1 rearrangement): 62%
ORR ([32]; ROS1 rearrangement, crizotinib as the only TKI): 35%

Now from value to molecule, other results behind:

IC50 [1]: 5070 nM
IC50 [2]: 5410 nM
IC50 [3]: 10000 nM
IC50 [4]: 10000 nM
Structure (SMILES): CCc1cc2c(cc1N1CCC(N3CCOCC3)CC1)C(C)(C)c1[nH]c3cc(C#N)ccc3c1C2=O [Alectinib]

IC50 [21]: 162 nM
IC50 [22]: 8 nM
Structure (SMILES): C[C@@H](Oc1cc(-c2cnn(C3CCNCC3)c2)cnc1N)c1c(Cl)ccc(F)c1Cl [Crizotinib]
anti-tumor effect [29]: resistant

IC50 ([5]; ALK-C1156Y, read-out: IC50): 17 nM
IC50 [6, 35]: 62 nM
IC50 [6, 36]: 62.2 nM
IC50 ([7]; ALK-F1174L, read-out: IC50): 29 nM
IC50 ([31]; ALK-F1174V, read-out: IC50): 54.5 nM
IC50 ([8]; ALK-G1202R, read-out: IC50): 409 nM
IC50 ([9]; ALK-G1202del, read-out: IC50): 932 nM
IC50 ([10]; ALK-G1269A, read-out: IC50): 212 nM
IC50 ([11]; ALK-I1171N, read-out: IC50): 18.4 nM
IC50 [12, 37]: 39 nM
IC50 [12, 38]: 41.5 nM
IC50 ([13]; ALK-I1171T, read-out: IC50): 28 nM
IC50 ([14]; ALK-L1152P, read-out: IC50): 25.7 nM
IC50 ([15]; ALK-L1152R, read-out: IC50): 71.4 nM
IC50 ([16]; ALK-L1196M, read-out: IC50): 98 nM
IC50 ([17]; ALK-T1151Tins, read-out: IC50): 42 nM
IC50 ([18]; ALK-V1180L, read-out: IC50): 16.6 nM
IC50 ([19]; ALK-WT, read-out: IC50): 14 nM
IC50 [1]: 195 nM
IC50 [2]: 970 nM
IC50 [3]: 192 nM
IC50 [4]: 189 nM
IC50 [20]: 1640 nM
IC50 [21]: 278 nM
IC50 [22]: 49 nM
Structure (SMILES): C[C@@H]1CN(C(=O)c2ccc(NC(=O)c3cc(O[C@H](C)c4c(Cl)ccc(F)c4Cl)c(N)nn3)cc2)C[C@H](C)N1 [Ensartinib]
ORR ([32]; ALK-rearranged patients): 60%
rash, % of patients [30]: 56%
